# Patent US20260062443A1 (ALEXION PHARMACEUTICALS, INC., priority 2022, published 2026)
# Target: T1, Human complement C1s enzyme (Homo sapiens, UniProt P09871)
# T1 sequence (P09871 438-688 limits assumed): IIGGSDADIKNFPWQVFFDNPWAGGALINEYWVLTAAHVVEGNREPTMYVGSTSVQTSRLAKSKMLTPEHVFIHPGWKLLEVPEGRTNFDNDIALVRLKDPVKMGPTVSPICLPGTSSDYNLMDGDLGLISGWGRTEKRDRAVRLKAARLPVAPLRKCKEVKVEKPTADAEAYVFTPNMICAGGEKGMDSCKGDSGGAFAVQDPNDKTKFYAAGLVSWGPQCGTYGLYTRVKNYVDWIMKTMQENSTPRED
# T1 sequence (P09871 16-437 partner limits assumed): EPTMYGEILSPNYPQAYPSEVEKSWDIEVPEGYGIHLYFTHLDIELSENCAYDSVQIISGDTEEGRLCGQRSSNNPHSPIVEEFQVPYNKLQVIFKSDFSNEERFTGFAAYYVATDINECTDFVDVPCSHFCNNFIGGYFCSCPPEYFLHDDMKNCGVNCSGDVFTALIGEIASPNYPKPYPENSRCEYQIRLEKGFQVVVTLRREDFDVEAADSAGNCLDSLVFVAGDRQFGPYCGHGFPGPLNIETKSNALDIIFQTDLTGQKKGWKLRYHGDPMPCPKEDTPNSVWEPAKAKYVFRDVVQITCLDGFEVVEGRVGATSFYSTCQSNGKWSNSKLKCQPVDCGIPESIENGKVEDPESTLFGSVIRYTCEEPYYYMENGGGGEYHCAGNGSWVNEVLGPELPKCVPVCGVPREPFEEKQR
# Assay: Human C1s enzyme assay
# Assay type: biochemical
# Conditions: human complement C1s enzyme 1.16 nM, substrate Z-L-Lys-SBzl 100 μM, 5 min preincubation; read-out: IC50 (Stars), C1s Inhibiting Activity
# Outline: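 IC50 from nonlinear regression of reaction rates versus compound concentration, with rates taken from A405 recorded at 30 s intervals over 30 min after adding 100 μM Z-L-Lys-SBzl plus 100 μM DTNB. Enzyme was human C1s purified from serum, 1.16 nM, given 5 min compound preincubation at room temperature, pH 7.5 Tris/1 M NaCl.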
row,Structure (SMILES),IC50
1,"C[C@@H](NC(=O)[C@@H]1C[C@](F)(CF)CN1C(=O)CNC(=O)c1ccc(-c2ccccc2)cc1)c1cc2cnccc2[nH]1 [Compound 84, (2S,4R)-N-((R)-1-(1H-pyrrolo[3,2-c]pyridin-2-yl)ethyl)-1-(([1,1′-biphenyl]-4-carbonyl)glycyl)-4-fluoro-4-(fluoromethyl)pyrrolidine-2-carboxamide]",> 1000 nM
2,"O=C(NCC(=O)N1C[C@@](F)(CF)C[C@H]1C(=O)N[C@H](CO)c1cc2cnccc2[nH]1)c1ccc(Oc2ccc(F)cc2)cc1 [Compound 95, (2S,4R)-4-fluoro-4-(fluoromethyl)-1-((4-(4-fluorophenoxy)benzoyl)glycyl)-N-((S)-2-hydroxy-1-(1H-pyrrolo[3,2-c]pyridin-2-yl)ethyl)pyrrolidine-2-carboxamide]",> 1000 nM
3,"C[C@@]12C[C@@H]1N(C(=O)CNC(=O)c1ccc(Oc3ccccc3)cc1)[C@H](C(=O)NCc1cc3c(s1)C(N)=NCC3)C2 [Compound 1, (1S,3S,5S)-N-((7-amino-4,5-dihydrothieno[2,3-c]pyridin-2-yl)methyl)-5-methyl-2-((4-phenoxybenzoyl)glycyl)-2-azabicyclo[3.1.0]hexane-3-carboxamide]",> 1000 nM
4,"C[C@@H](NC(=O)[C@@H]1C[C@@H](OC(F)F)CN1C(=O)CNC(=O)c1ccc2c(c1)C(F)(F)c1ccccc1-2)c1cc2cnccc2[nH]1 [Compound 167, (2S,4R)-N-((R)-1-(1H-pyrrolo[3,2-c]pyridin-2-yl)ethyl)-1-((9,9-difluoro-9H-fluorene-2-carbonyl)glycyl)-4-(difluoromethoxy)pyrrolidine-2-carboxamide]",< 100 nM
5,"C[C@@H](NC(=O)[C@@H]1C[C@](F)(CF)CN1C(=O)CNC(=O)c1ccc(Oc2ccc(F)cc2)cc1)c1cc2cnccc2[nH]1 [Compound 89, (2S,4R)-N-((R)-1-(1H-pyrrolo[3,2-c]pyridin-2-yl)ethyl)-4-fluoro-4-(fluoromethyl)-1-((4-(4-fluorophenoxy)benzoyl)glycyl)pyrrolidine-2-carboxamide]",> 1000 nM
6,"Cc1ccc(Oc2cccc(C(=O)NCC(=O)N3CC4(C[C@H]3C(=O)N[C@H](C)c3cc5cnccc5[nH]3)OCCO4)c2)c(F)c1 [Compound 321, (S)-N-((R)-1-(1H-pyrrolo[3,2-c]pyridin-2-yl)ethyl)-7-((3-(2-fluoro-4-methylphenoxy)benzoyl)glycyl)-1,4-dioxa-7-azaspiro[4.4]nonane-8-carboxamide]",< 100 nM
7,"C[C@@H](NC(=O)[C@@H]1C[C@@H](OC(F)F)CN1C(=O)CNC(=O)c1ccc(Oc2ccccc2)cc1)c1cc(B(O)O)cs1 [Compound 189, (5-((R)-1-((2S,4R)-4-(difluoromethoxy)-1-((4-phenoxybenzoyl)glycyl)pyrrolidine-2-carboxamido)ethyl)thiophen-3-yl)boronic acid]",> 1000 nM
8,"C[C@@]12C[C@@H]1N(C(=O)CNC(=O)c1ccc3c(c1)Oc1ccccc1S3)[C@H](C(=O)NCc1ccc3c(c1)COB3O)C2 [Compound 279, (1S,3S,5S)-N-((1-hydroxy-1,3-dihydrobenzo[c][1,2]oxaborol-5-yl)methyl)-5-methyl-2-((phenoxathiine-3-carbonyl)glycyl)-2-azabicyclo[3.1.0]hexane-3-carboxamide]",> 1000 nM
9,"Cc1ccc(Oc2cccc(C(=O)NCC(=O)N3CC4(C[C@H]3C(=O)NCc3cc5cnccc5[nH]3)OCCO4)c2)c(F)c1 [Compound 307, (S)-N-((1H-pyrrolo[3,2-c]pyridin-2-yl)methyl)-7-((3-(2-fluoro-4-methylphenoxy)benzoyl)glycyl)-1,4-dioxa-7-azaspiro[4.4]nonane-8-carboxamide]",< 100 nM
10,"Cn1c(C2(NC(=O)[C@@H]3C[C@]4(C)C[C@@H]4N3C(=O)CNC(=O)CCCOc3ccccc3)CC2)nc2ccncc21 [Compound 65, (1S,3S,5S)-5-methyl-N-(1-(3-methyl-3H-imidazo[4,5-c]pyridin-2-yl)cyclopropyl)-2-((4-phenoxybutanoyl)glycyl)-2-azabicyclo[3.1.0]hexane-3-carboxamide]",> 1000 nM
11,"CS(=O)(=O)[C@@H]1C[C@@H](C(=O)NCc2cc3cnccc3[nH]2)N(C(=O)CNC(=O)c2ccc3oc4ccccc4c3c2)C1 [Compound 202, (2S,4R)-N-((1H-pyrrolo[3,2-c]pyridin-2-yl)methyl)-1-((dibenzo[b,d]furan-2-carbonyl)glycyl)-4-(methylsulfonyl)pyrrolidine-2-carboxamide]",< 100 nM
12,"Cc1ccc(Oc2cccc(C(=O)NCC(=O)N3[C@H]4C[C@@]4(C)C[C@H]3C(=O)NCc3cc4cnccc4[nH]3)c2)c(F)c1 [Compound 315, (1S,3S,5S)-N-((1H-pyrrolo[3,2-c]pyridin-2-yl)methyl)-2-((3-(2-fluoro-4-methylphenoxy)benzoyl)glycyl)-5-methyl-2-azabicyclo[3.1.0]hexane-3-carboxamide]",< 100 nM
13,"O=C(NCC(=O)N1CC2(C[C@H]1C(=O)NCc1cc3cnccc3s1)OCCO2)c1cccc(Oc2ccccc2)c1 [Compound 256, (S)-7-((3-phenoxybenzoyl)glycyl)-N-(thieno[3,2-c]pyridin-2-ylmethyl)-1,4-dioxa-7-azaspiro[4.4]nonane-8-carboxamide]",< 100 nM
14,"C[C@@]12C[C@@H]1N(C(=O)CNC(=O)c1cccc(Oc3ccc(F)cc3)c1)[C@H](C(=O)NCc1cc3cnccc3[nH]1)C2 [Compound 153, (1S,3S,5S)-N-((1H-pyrrolo[3,2-c]pyridin-2-yl)methyl)-2-((3-(4-fluorophenoxy)benzoyl)glycyl)-5-methyl-2-azabicyclo[3.1.0]hexane-3-carboxamide]",< 100 nM
15,"O=C(NCC(=O)N1C[C@H](OC(F)F)C[C@H]1C(=O)NCc1cc2cnccc2[nH]1)c1ccc(OC2CCCCC2)cc1 [Compound 383, (2S,4R)-N-((1H-pyrrolo[3,2-c]pyridin-2-yl)methyl)-1-((4-(cyclohexyloxy)benzoyl)glycyl)-4-(difluoromethoxy)pyrrolidine-2-carboxamide]",< 100 nM

# Continued, values first:
row,IC50,Structure (SMILES)
1,< 100 nM,"C[C@@H](NC(=O)[C@@H]1C[C@@H](C2OCCCO2)CN1C(=O)CNC(=O)c1ccc2c(c1)Oc1ccccc1S2)c1cc2cnccc2[nH]1 [Compound 145, (2S,4R)-N-((R)-1-(1H-pyrrolo[3,2-c]pyridin-2-yl)ethyl)-4-(1,3-dioxan-2-yl)-1-((phenoxathiine-3-carbonyl)glycyl)pyrrolidine-2-carboxamide]"
2,< 100 nM,"C[C@@H](NC(=O)C1C[C@H](COCCCCCC(=O)O)CN1C(=O)CNC(=O)c1ccc2c(c1)Oc1ccccc1S2)c1cc2cnccc2[nH]1 (stereo partly drawn) [Compound 204, 6-(((3S)-5-(((R)-1-(1H-pyrrolo[3,2-c]pyridin-2-yl)ethyl)carbamoyl)-1-((phenoxathiine-3-carbonyl)glycyl)pyrrolidin-3-yl)methoxy)hexanoic acid]"
3,< 100 nM,"O=C(NCC(=O)N1C[C@H](OC(F)F)C[C@H]1C(=O)NCc1cc2cnccc2[nH]1)c1cc(-c2ccccc2)cs1 [Compound 379, (2S,4R)-N-((1H-pyrrolo[3,2-c]pyridin-2-yl)methyl)-4-(difluoromethoxy)-1-((4-phenylthiophene-2-carbonyl)glycyl)pyrrolidine-2-carboxamide]"
4,< 100 nM,"O=C(NCC(=O)N1C[C@H](OC(F)F)C[C@H]1C(=O)N[C@H](CO)c1cc2cnccc2[nH]1)c1ccc2c(c1)Oc1ccccc1S2 [Compound 93, (2S,4R)-4-(difluoromethoxy)-N-((S)-2-hydroxy-1-(1H-pyrrolo[3,2-c]pyridin-2-yl)ethyl)-1-((phenoxathiine-3-carbonyl)glycyl)pyrrolidine-2-carboxamide]"
5,< 100 nM,"O=C(NCC(=O)N1C[C@H](OC(F)F)C[C@H]1C(=O)NCc1cc2cnccc2s1)c1ccc2c(c1)Oc1ccccc1S2 [Compound 141, (2S,4R)-4-(difluoromethoxy)-1-((phenoxathiine-3-carbonyl)glycyl)-N-(thieno[3,2-c]pyridin-2-ylmethyl)pyrrolidine-2-carboxamide]"
6,< 100 nM,"CC1c2ccccc2-c2cc(C(=O)NCC(=O)N3C[C@H](OC(F)F)C[C@H]3C(=O)NCc3cc4cnccc4[nH]3)ccc21 (stereo partly drawn) [Compound 302, (2S,4R)-N-((1H-pyrrolo[3,2-c]pyridin-2-yl)methyl)-4-(difluoromethoxy)-1-((9-methyl-9H-fluorene-3-carbonyl)glycyl) pyrrolidine-2-carboxamide]"
7,< 100 nM,"Cc1ccsc1Oc1cccc(C(=O)NCC(=O)N2C[C@H](OC(F)F)C[C@H]2C(=O)NCc2cc3cnccc3[nH]2)c1 [Compound 385, (2S,4R)-N-((1H-pyrrolo[3,2-c]pyridin-2-yl)methyl)-4-(difluoromethoxy)-1-((3-((3-methylthiophen-2-yl)oxy)benzoyl)glycyl) pyrrolidine-2-carboxamide]"
8,< 100 nM,"O=C(NCC(=O)N1C[C@H](OC(F)F)C[C@H]1C(=O)NCc1cc2cnccc2[nH]1)c1ccc2c(c1)OCCS2 [Compound 356, (2S,4R)-N-((1H-pyrrolo[3,2-c]pyridin-2-yl)methyl)-4-(difluoromethoxy)-1-((2,3-dihydrobenzo[b][1,4]oxathiine-7-carbonyl)glycyl)pyrrolidine-2-carboxamide]"
